# Read-outs that look alike come from different tables or passages of the source.
# Tests used:
# [1] = tested on: herpes viruses; conditions: cited from earlier work
# [2] = tested on: HCMV; assay type: in vivo, human; conditions: for mean energy index: six months later
# Description: HCMV-Isolated CFS Patients-Test of Antiviral Treatment. A study was conducted to assess the possible efficacy of ganciclovir treatment on a subset of CFS patients with (1) high HCMV IgG ELISA antibody titers; (2) minimal/no serologic evidence of concurrent EBV multiplication; and (3) oscillating ECG abnormalities at Holter monitoring. Patients. From March, 1993, through June, 1994, 3 men and 15 women with the mean age of 39.7 plus or minus 7.7 years, with CFS (as defined by the USA, Centers for Diseases Control criteria), were recruited from a single infectious diseases referral center in Birmingham, Mich. Approximately 50 patients with chronic fatigue syndrome were screened for inclusion in this study. […] In these 18 CFS patients, baseline standard 12 lead ECG, 2-D echocardiogram, rest-stress myocardial perfusion (thallium 201 or Tc-99 cardiolite) and rest-stress multiple […] acquisitions (MUGA) studies as well as coronary angiography excluded coronary artery disease. HCMV ELISA and HCMV ELISA IgG titers, as well as EBV capsid antigen (VCA), ELISA IgM and EBV total early antigens (EA) immunofluorescent antibody titers were assayed. Additionally, buffy coats, urine and myocardial biopsies were tested for infectious HCMV. […] Holter monitoring, MUGA studies and endomyocardial biopsies in these patients were done. Holter monitors, MUGA studies and endomyocardial biopsies were read blindly without knowledge of the patient. Also readings were repeated by at least one, and often several, other physician readers. A patient's 24-hour Holter monitor was considered positive if T-waves became intermittently inverted or flat. Labile T-wave abnormalities at Holter monitoring were present in each CFS patient. In addition to the Holter monitoring, at each outpatient visit, a subjective evaluation of the patient's functional status was recorded using the energy index (EI) as previously described. Infusions of Ganciclovir. After placement of a peripherally inserted central catheter (PICC) or a groshong catheter, ganciclovir was given intravenously in a dose of 5 mg. per kg. at 12-hour intervals for 30 days. Patients were seen once a week by the same physician and complete blood counts, SMA values and urinalysis were conducted. […] They were advised to avoid exercise, fatigue and alcohol and engage in regular sleeping patterns. Statistical Methods. Eighteen patients, 3 men and 15 women, all with CFS, with a mean age of 39.7 ranging from 29 to 51 years, were evaluated. Statistical significance between patients meeting the criteria for the HCMV subset and other patients with CFS were evaluated using tests of homogeneity of chi-square analysis and the two-tailed Fisher's exact test for bivariate analysis of dichotomous data.
# [3] = in vivo, po, 1000 mg; cited from earlier work
# [4] = tested on: human cytomegalovirus (nonstructural gene products p52 and CM2); assay: Example 4: Copalis antibody titers and fatigue after ganciclovir in HCMV CFS patients; assay type: in vivo
# Source text: This Copalis® method to CM2 and p52 measures IgM antibodies to HCMV non-structural gene products. The non-structural gene products are UL44, UL57. These gene products have been produced in E-coli. The UL44 and UL57 refer to the open reading frames (ORF) of the human cytomegalovirus genome. The UL44 has the function of a polymerase processivity factor known as p52. The UL57 is the second gene product which may be measured by the Copalis® method and its function is as a single-stranded (ss) DNA binding protein CM2. These are nonstructural gene products which are extruded from a cell with incomplete human cytomegalovirus multiplication. The Copalis® method measures antibodies to these two gene products with the purified antigens produced in E-coli.
# The Copalis® CMV Mutliplex assay is a homogenous test for the simultaneous determination of acute infection stages or immune status to Cytomegalovirus using coupled particle light scattering. Sized microparticles, coated with one of three antigens (p52, CM2, and CMV viral particle (VP)) are dried in the reaction cup. Early phase IgM antibodies are detected by both the CM2 and the p52 antigens. Antibody response to the CM2 antigen but not to the p52 antigen continues through the convalescent stage of acute infection. Antibodies to the VP may appear during acute infection but shall persist during life. Reactivity just (sucrose-density purified tissue culture produced complete HCMV cytomegalovirus) to the VP is characteristic of prior infection (indicative of immune status). Antibody detection, made by the Copalis® Immunoassay System, is reported qualitatively for the IgM analytes and semi-quantitatively for the total analyte.
# The Copalis® CMVplex Antibody Assay is based on the principle of antibody dependent particle aggregation as measured by the amount of light scattered. A typical antibody reactivity pattern (IgM and/or IgG) in the patient sample allows diagnosis of the infection as seronegative, acute or past infections. The CMVplex Test Cup has polystyrene microparticles of three sizes each coated with different specific antigens dried in the bottom. The Test Cup is reconstituted with reaction buffer by the instrument. The sample is then transferred into the reaction well and the mixture is agitated for 10 minutes. Upon completion of the agitation, the reaction mixture is transferred to the optical system for analysis.
# The level of aggregation is determined by discrimination of particle sizes and unreacted particles (monomers) as detected by the optical system. The quantity of assay particles remaining as monomers is compared to that of an unreacted baseline negative calibrator. A ratio is established between the counts of the two monomer particles. This ratio is reported as the Copalis® Test Result (CTR). The CTR is then converted into a numerical unit, Copalis® Index (CI), which determines the cutoff thresholds for each marker. Interpretation of results is based upon the CI. Results for the IgG marker (VP) are reported semi-quantitatively and qualitatively for the IgM markers (p52 and CM2).
# Results of Copalis® antibody testing in patients with the U.S. CDC-Chronic Fatigue Syndrome and various other patients with severe onset of […] fatigue. Group 1) Eight patients were studied with the chronic fatigue syndrome. They are six women and […] with ages ranging from 32 through 48. They had IgG antibodies to human cytomegalovirus. […] They would be evaluated as having past infection. […]
# [5] = tested on: Epstein-Barr virus persistent infection; assay: Example 2: valacyclovir treatment of EBV-isolated CFS patients; assay type: in vivo, human
# Source text: EBV-Isolated CFS Patients—Test of Antiviral Treatment. […] EBV active infection was documented by EBV VCA IgM antibodies and/or EBV EA elevated antibody titers. All of these patients had their energy levels reduced by 50% or more and were partially or entirely non-functional, unable to work or maintain a household. These ten patients had no diseases or complicating conditions which could have accounted for their chronic fatigue syndrome symptoms and they had no prior psychiatric diseases.
# Each patient's functional status was recorded as a statistically validated energy index (EI). At each out-patient visit, subjective evaluation of the patient's functional status was recorded using this energy index. The energy index records the average subjective vitality of the patient in the immediate 14 days prior to this specific out-patient visit. When minor illnesses such as the common cold complicated a visit, evaluation of the EI for a patient was delayed until the intercurrent problem receded.
# Prior to the initiation of the antiviral treatment and following approximately six months of treatment, objective evaluations of the ability to work and the energy index of each of the ten patients was analyzed.
# Pursuant to the energy index, a patient with a 0 energy index (EI) is bedridden. With an energy index of 1 or 2, any activity by the patient leads to overwhelming, incapacitating fatigue. Such patients are generally light-headed, unable to think clearly, and concentration is difficult for any extended period of time (over 60 minutes). Left-sided chest aches, palpitations, sore throats and feverishness are frequent. These patients may be out of bed for intermittent, brief periods of the day.
# Patients with an energy index between 3 and 5 can, with great effort, be out of bed for several hours each day doing non-physical activities. […] These patients express variable light-headedness, inability to think clearly or read normally. Left-sided chest aches, palpitations, sore throats and feverishness occur often. Patients within this energy range cannot perform a 40 hour sedentary job or maintain the duties of a homemaker including such activities as cooking and cleaning. In general, CFS patients have an energy index of 5 or less.
# Patients with an energy index between 6 and 9 can assume normal activities and maintain a 40 hour work week and, with pacing, maintain a household. […] These patients can do light physical work or exercise in moderation without fatigue.
# Patients with an energy index of 10 have normal energy levels, stamina and a sense of well-being. Light-headedness, difficulties in concentrating and reading ability and chest aches, palpitations, sore throats and feverishness are absent.
# During the initial and final clinical visits, each CFS patient was studied to determine the IgM antibodies to the EBV viral capsid antigen (VCA), total early antigens (EA), and enzyme immunoassays (ELISA) to HCMV IgM and HCMV ELISA IgG titers. An IgM EBV VCA antibody titer indicates infectious lytic EBV multiplication within the most recent 3 month period. During the EBV infectious lytic cycle, antigen is expressed which can be divided into a diffuse (EAD) complex and a cytoplasmic restricted EAR complex (EAR). As a result, each patient's EAD was assayed. The presence of EBV EA antibody indicates current EBV multiplication. Likewise, an elevated […] IgM antibody indicates recent EBV or HCMV multiplication, respectively. The EBV VCA antibody IgM titers were done by the ELISA method. As a control group, similar serum antibody titers were measured in 20 non-CFS individuals. In the non-CFS control group, the mean HCMV IgG titer was 240.
# Dosage. Each of the patients was administered an oral dose of valacyclovir at 10 mg/kg by mouth every six hours.
# Demographics. There were nine women and one person. Their ages ranged from 20-67 years. Their mean age was 43.3 years. […]
# [6] = eight CFS patients, intravenous followed by oral ganciclovir
compound,measurement,setting,value
"O=C(O)P(=O)(O)O [Foscarnet sodium, trisodium phosphonoformate]",activity against herpes viruses,[1]; in vitro and in vivo,potent in vitro and in vivo activity
O=c1[nH]c(=O)n([C@@H]2O[C@H](CO)[C@@H](O)[C@@H]2O)cc1/C=C/Br [bromovinyl arabinosyl uracil],inhibition of herpes viruses,"[1]; herpes simplex virus Type 1, Epstein-Barr virus and VZV",significant inhibition
"Nc1nc2c(ncn2COC(CO)CO)c(=O)[nH]1 [ganciclovir, 9-(1,3-dihydroxy-2-propoxymethyl) guanine]",mean energy index,"[2]; Group A (13 improved patients), start mean 3",7
same,"patients with improved MUGA test results (lesser tardokinesis, hypokinesis or left ventricular dilatation)","[2]; Group A, after treatment",3 patients
same,patients with previously abnormal myocardial dynamics reverted to normal (MUGA),"[2]; Group A, after treatment",3 patients
same,patients who resumed normal pre-CFS activity levels,[2]; Group B,none
same,mean energy index,"[2]; Group B (5 not improved patients), start mean 2",4
same,fatigue,[2]; case study,disappeared
same,maximal cardiac ejection fraction,"[2]; case study, a further five months later, from 54%",68%
same,resting ejection fraction (stress MUGA),"[2]; case study, five months after 30 days i.v. treatment, before 40%",54%
same,increase of resting ejection fraction,"[2]; case study, from 40% to 54%",14%
same,serum creatinine,"[2]; human, in vivo",transient increase in serum creatinine
same,adverse events,"[2]; human, in vivo, iv",no adverse events or symptoms attributable to ganciclovir
same,patients improved,"[2]; of 18 CFS patients, 5 mg per kg i.v. at 12-hour intervals for 30 days",13 patients
same,MUGA study at follow up,"[2]; one Group B patient with initial normal MUGA, 6 months after treatment",showed septal hypokinesis
same,clinical response,"[2]; small preliminary subset of CFS patients with HCMV infection, no concurrent EBV multiplication",salutary response
same,activity level after antiviral treatment,[2]; the 13 patients in Group A,resumed their normal pre-CFS activity levels
same,bioavailability (of ganciclovir),[3],5.6%
same,antibodies to nonstructural gene products p52 and CM2 (Copalis),[4]; [6],became markedly lower and disappeared
same,fatigue,[4]; [6],remarkably lessened
same,clinical outcome,"[4]; person positive only by p52, intravenous followed by oral ganciclovir",improved remarkably
same,cardiac function,"[4]; person with congestive heart failure and diabetes mellitus, intravenous",improved
same,CM2 antibodies (Copalis),"[4]; two CFS patients with high CM2, no elevated p52, intravenous followed by oral ganciclovir",lessened or disappeared
CC(C)[C@H](N)C(=O)OCCOCn1cnc2c(=O)[nH]c(N)nc21 [valacyclovir],mean energy index (EI) at completion of therapy,"[5]; 10 EBV CFS patients, 10 mg/kg by mouth every six hours, about six months, pre-therapy mean EI 4.7",7.5
same,median energy index (EI) at completion of therapy,"[5]; 10 EBV CFS patients, about six months of treatment",7
same,range of energy index (EI) at completion of therapy,"[5]; 10 EBV CFS patients, pre-therapy range 3.5 to 5.5",6-10
same,"patients with light-headedness, unsteadiness, inability to think well at completion of the trial",[5]; at beginning 9 out of 10,one of ten
same,patients with palpitations at completion of the trial,[5]; at beginning five out of ten,three out of ten
same,patients with positive EA antibody titers (≧10) at completion of the trial,[5]; at beginning seven out of ten,eight out of ten
same,patients with EBV VCA IgM positive titers at completion of the trial,[5]; before trial five out of ten,two out of ten
same,ability to work / activity level following treatment,"[5]; each of the ten patients, after approximately six months",able to fully engage in his/her activity level at work or home
same,patients with chest pain at completion of the trial,[5]; prior to therapy five out of ten,one out of ten
CC(C)[C@H](N)C(=O)OCC(CO)OCn1cnc2c(=O)nc(N)[nH]c21 (stereo partly drawn) [valganciclovir],bioavailability (of ganciclovir),[3],60.9%

# — patent publication US6399622B1, “Method for diagnosing and alleviating the symptoms of chronic fatigue syndrome” (priority 1997, dated 2002)
